{"source": "paper PMC8482806", "about": "“A Novel Blood-Brain Barrier-Permeable Chemotherapeutic Agent for the Treatment of Glioblastoma” (Cureus, 2021)", "key": {"hLAT2": {"biological_target": "T1, hLAT2 (Homo sapiens, UniProt Q9UHI5)", "T1 construct": "host or cells: LLC-PK1 (tetracycline-inducible, Invitrogen Gateway pT-REx System)", "T1 sequence (Q9UHI5 1-535)": "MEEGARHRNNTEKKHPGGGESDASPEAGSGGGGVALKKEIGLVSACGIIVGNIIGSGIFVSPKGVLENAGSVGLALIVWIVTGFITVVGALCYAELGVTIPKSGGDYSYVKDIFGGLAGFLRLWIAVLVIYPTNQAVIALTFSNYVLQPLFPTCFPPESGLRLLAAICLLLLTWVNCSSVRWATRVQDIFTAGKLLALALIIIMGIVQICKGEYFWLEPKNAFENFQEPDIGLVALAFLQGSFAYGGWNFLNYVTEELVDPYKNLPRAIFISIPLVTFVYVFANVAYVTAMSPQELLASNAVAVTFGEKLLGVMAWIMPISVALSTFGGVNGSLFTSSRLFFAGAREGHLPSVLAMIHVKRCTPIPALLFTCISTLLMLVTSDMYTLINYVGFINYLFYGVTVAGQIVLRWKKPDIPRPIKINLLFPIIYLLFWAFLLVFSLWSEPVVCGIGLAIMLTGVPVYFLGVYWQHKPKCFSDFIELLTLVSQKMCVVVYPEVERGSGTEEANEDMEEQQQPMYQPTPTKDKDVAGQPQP", "T1 sequence (P08195 1-529 partner)": "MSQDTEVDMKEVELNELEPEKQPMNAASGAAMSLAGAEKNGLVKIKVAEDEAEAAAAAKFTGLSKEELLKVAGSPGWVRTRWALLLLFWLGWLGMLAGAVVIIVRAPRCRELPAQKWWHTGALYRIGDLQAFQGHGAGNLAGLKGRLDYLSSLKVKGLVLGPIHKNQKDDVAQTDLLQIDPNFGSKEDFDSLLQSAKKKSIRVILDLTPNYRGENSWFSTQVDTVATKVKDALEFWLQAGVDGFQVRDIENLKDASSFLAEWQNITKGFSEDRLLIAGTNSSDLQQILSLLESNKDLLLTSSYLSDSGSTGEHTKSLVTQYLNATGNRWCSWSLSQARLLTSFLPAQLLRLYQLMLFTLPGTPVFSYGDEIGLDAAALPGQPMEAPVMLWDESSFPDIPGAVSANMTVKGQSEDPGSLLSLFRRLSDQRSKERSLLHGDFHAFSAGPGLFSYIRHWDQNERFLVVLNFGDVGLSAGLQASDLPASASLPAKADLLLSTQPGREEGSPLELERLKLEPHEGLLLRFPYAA", "assay": "Substrate transport inhibition, [3H]-leucine uptake in LLC-PK1 cells expressing hLAT2", "assay_type": "cell-based", "conditions": "[3H]-leucine, LLC-PK1 LAT2-expressing cells, 15 minutes at room temperature; read-out: IC50, inhibition of substrate transport (LAT2)", "protocol": "Substrate transport inhibition studies were conducted with LLC-PK1 cells inducibly expressing either hLAT1 or hLAT2. Cells were plated in growth media with 1 μg/mL doxycycline at 30,000 cells/well in 96-well plates. Sixteen hours after plating, cells were treated with butyrate at a final concentration of 5 mM. The following day, cells were washed with PBS and incubated in the presence or absence of various concentrations of QBS10072S with 30,000 cpm/well of either [3H]-gabapentin (LAT1) or [3H]-leucine (LAT2) in PBS for 15 minutes at room temperature. The non-specific cell-bound activity was determined by the addition of 5 mM unlabeled gabapentin (LAT1) or leucine (LAT2). Unincorporated radioactivity was removed, and cells were washed three times with ice-cold PBS. Cells were lysed by adding scintillation fluid to each well, and cell-associated radioactivity was determined via scintillation counting using a multichannel 96-well plate reader (MicroBeta Trilux, Perkin Elmer, Waltham, MA). Data were expressed as the percent of specific radioactivity uptake in wells with no compound added. LC50s were determined by non-linear curve-fitting using GraphPad Prism (San Diego, CA)."}, "U251 cells": {"system": "U251 cells", "assay": "Cell viability assay (CellTiter-Glo), U251", "assay_type": "cell-based", "conditions": "Homo sapiens, U-251; Cell Line: U251; read-out: LC50 (μM ± SD)", "protocol": "(§1) In vitro activity of QBS10072S was assessed using a modified clonogenic cell viability assay in 96-well clear-bottom plates. For the LLC-PK1 inducible LAT1-expressing cell line, 1000 cells/well were plated and cells were treated with either butyrate alone (non-induced) or with both butyrate and doxycycline (induced) as described above. For GBM cell lines, 2000 cells/well were plated. On day 2 (GBM) or day 3 (LLC-PK1) after original plating, cells were washed twice with PBS and incubated with 50 μL of various concentrations of QBS10072S in PBS in at least quadruplicate. After 30 minutes at 37°C, 200 μL of growth medium was added to each well. Clonal populations were allowed to grow until the control wells (mock treatment) were near confluence (7 to 10 days). At this point, 170 μL media were removed and 60 μL CellTiter-Glo® (Promega, Madison, WI) were added to each well. Plates were placed on an orbital shaker for three minutes to lyse the cells and then incubated for an additional 10 minutes at RT to stabilize the luminescent signal. Luminescence was recorded using an EnSpire® Multimode Plate Reader (Perkin Elmer). Background (luminescence from wells incubated with 100 μM melphalan or lomustine) was subtracted and data were normalized to the control. EC50s were determined by non-linear regression using GraphPad Prism."}, "GBM cell lines": {"system": "GBM cell lines", "assay": "Cell viability assay (CellTiter-Glo), multiple GBM cell lines", "assay_type": "cell-based", "conditions": "Homo sapiens; range over cell lines; read-out: EC50s, viability loss in multiple GBM cell lines", "protocol": "as §1"}, "[1]": {"assay": "Cytotoxicity in normal human astrocytes (CellTiter-Glo)", "assay_type": "cell-based", "conditions": "normal human astrocytes (NHA), read-out: LC50", "experimental": "In vitro activity of QBS10072S was assessed using a modified clonogenic cell viability assay in 96-well clear-bottom plates. […] For GBM cell lines, 2000 cells/well were plated. On day 2 (GBM) or day 3 (LLC-PK1) after original plating, cells were washed twice with PBS and incubated with 50 μL of various concentrations of QBS10072S in PBS in at least quadruplicate. After 30 minutes at 37°C, 200 μL of growth medium was added to each well. Clonal populations were allowed to grow until the control wells (mock treatment) were near confluence (7 to 10 days). At this point, 170 μL media were removed and 60 μL CellTiter-Glo® (Promega, Madison, WI) were added to each well. Plates were placed on an orbital shaker for three minutes to lyse the cells and then incubated for an additional 10 minutes at RT to stabilize the luminescent signal. Luminescence was recorded using an EnSpire® Multimode Plate Reader (Perkin Elmer). Background (luminescence from wells incubated with 100 μM melphalan or lomustine) was subtracted and data were normalized to the control. EC50s were determined by non-linear regression using GraphPad Prism.\nCells were incubated with a titration of QBS10072S or melphalan and cell viability was measured by CellTiter-Glo. LC50 values for each compound were determined."}, "8MGBA cells": {"system": "8MGBA cells", "assay": "Cell viability assay (CellTiter-Glo), 8MGBA", "assay_type": "cell-based", "conditions": "Homo sapiens, 8-MG-BA; Cell Line: 8MGBA; read-out: LC50 (μM ± SD)", "protocol": "as §1"}, "LN229 cells": {"system": "LN229 cells", "assay": "Cell viability assay (CellTiter-Glo), LN229", "assay_type": "cell-based", "conditions": "Homo sapiens, LN-229; Cell Line: LN229; read-out: LC50 (μM ± SD)", "protocol": "as §1"}, "[2]": {"assay": "Maximum tolerated dose in Sprague-Dawley rats", "assay_type": "in vivo, rat", "conditions": "highest dose 10 mg/kg IV on day zero", "protocol": "Figure 7 Maximum tolerated dose in rats Sprague-Dawley rats (4 per arm) were dosed IV on day zero with vehicle or 2.5, 5, or 10 mg/kg of QBS10072S. Animals were monitored for two weeks for body weight changes (A), survival (B), and complete blood counts, including white blood cells (C), neutrophils (D), lymphocytes (E), red blood cells (F), platelets (G), and reticulocytes (H). Cell count results are expressed as cell count per μl. The normal cell count range for each type of cell is between the “max” and “min” lines, and the average value is indicated with a dotted line. Based on allometric scaling, 2.5, 5, and 10 mg/kg in rats is equivalent to 5, 10, and 20 mg/kg."}}}
{"smiles": "Cc1ccc(N(CCCl)CCCl)cc1C[C@H](N)CC(=O)O", "note": "[QBS10072S, (+)-(3S)-amino-4-[5-[bis(2-chloroethyl)amino]-2-methyl-phenyl]butanoic acid]", "values": [{"measurement": "IC50", "setting": "hLAT2", "result": 1100, "unit": "µM"}, {"measurement": "CC50", "setting": "U251 cells", "result": "12 ± 2", "unit": "µM"}, {"measurement": "EC50", "setting": "GBM cell lines", "result": "12 to 40", "unit": "µM"}, {"measurement": "CC50 at 30 min", "setting": "[1]", "result": "> 10", "unit": "µM"}, {"measurement": "CC50", "setting": "8MGBA cells", "result": "34 ± 20", "unit": "µM"}, {"measurement": "CC50", "setting": "LN229 cells", "result": "16 ± 2", "unit": "µM"}, {"measurement": "maximum tolerated dose", "setting": "[2]", "result": "the highest dose was greater than the maximum tolerated dose"}]}
